The values that follow come from ChEMBL document CHEMBL1122993, “3-Alkyl-3-hydroxyglutaric acids: a new class of hypocholesterolemic HMG CoA reductase inhibitors. 1” (J Med Chem, 1985).

Series [1] has as its target T1, 3-hydroxy-3-methylglutaryl-coenzyme A reductase (Rattus norvegicus) (UniProt P51639).
T1 sequence (whole entry): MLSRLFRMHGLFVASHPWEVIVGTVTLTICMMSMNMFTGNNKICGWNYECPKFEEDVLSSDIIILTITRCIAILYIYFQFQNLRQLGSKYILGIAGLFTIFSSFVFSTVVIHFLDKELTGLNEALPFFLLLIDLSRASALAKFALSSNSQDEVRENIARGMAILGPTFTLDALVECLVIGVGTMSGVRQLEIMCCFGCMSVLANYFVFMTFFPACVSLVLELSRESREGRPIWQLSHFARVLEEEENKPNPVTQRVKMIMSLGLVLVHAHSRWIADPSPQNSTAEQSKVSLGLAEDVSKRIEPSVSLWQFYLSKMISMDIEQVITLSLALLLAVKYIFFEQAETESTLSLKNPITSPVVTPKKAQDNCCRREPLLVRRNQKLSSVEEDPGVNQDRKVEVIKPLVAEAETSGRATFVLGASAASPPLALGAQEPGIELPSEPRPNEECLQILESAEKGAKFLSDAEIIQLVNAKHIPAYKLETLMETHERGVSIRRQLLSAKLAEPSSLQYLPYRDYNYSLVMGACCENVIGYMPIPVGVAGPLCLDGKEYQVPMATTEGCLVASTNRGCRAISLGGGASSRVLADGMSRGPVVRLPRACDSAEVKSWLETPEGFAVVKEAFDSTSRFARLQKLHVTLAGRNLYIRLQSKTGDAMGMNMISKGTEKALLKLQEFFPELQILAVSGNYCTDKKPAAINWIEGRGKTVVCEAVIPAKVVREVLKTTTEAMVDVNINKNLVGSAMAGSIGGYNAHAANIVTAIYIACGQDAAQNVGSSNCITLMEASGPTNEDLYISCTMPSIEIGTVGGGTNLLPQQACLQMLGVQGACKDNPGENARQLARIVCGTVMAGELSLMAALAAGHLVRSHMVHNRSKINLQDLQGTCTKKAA
The series is described as follows: In vitro inhibition of rat liver HMG-CoA reductase at concentration of 10e-3 M.

Series [2] has as its system Rattus norvegicus. The series is described as follows: Percent reduction of Serum Cholesterol in Triton-treated rat at dose 200 mg/kg by intragastric administration (p<0.01). It counts as functional.
Series [3] has as its system Rattus norvegicus. The series is described as follows: Percent reduction of Serum Cholesterol in Triton-treated rat at dose 300 mg/kg by intragastric administration (p<0.01). Format: functional.
Series [4] concerns Rattus norvegicus. Briefly: Percent reduction of Serum Cholesterol in Triton-treated rat at dose 100 mg/kg by intragastric administration (p<0.01). It counts as functional.
The target of series [5] is T2, 3-hydroxy-3-methylglutaryl-coenzyme A reductase (Rattus norvegicus, UniProt P51639).
T2 sequence (P51639 whole entry): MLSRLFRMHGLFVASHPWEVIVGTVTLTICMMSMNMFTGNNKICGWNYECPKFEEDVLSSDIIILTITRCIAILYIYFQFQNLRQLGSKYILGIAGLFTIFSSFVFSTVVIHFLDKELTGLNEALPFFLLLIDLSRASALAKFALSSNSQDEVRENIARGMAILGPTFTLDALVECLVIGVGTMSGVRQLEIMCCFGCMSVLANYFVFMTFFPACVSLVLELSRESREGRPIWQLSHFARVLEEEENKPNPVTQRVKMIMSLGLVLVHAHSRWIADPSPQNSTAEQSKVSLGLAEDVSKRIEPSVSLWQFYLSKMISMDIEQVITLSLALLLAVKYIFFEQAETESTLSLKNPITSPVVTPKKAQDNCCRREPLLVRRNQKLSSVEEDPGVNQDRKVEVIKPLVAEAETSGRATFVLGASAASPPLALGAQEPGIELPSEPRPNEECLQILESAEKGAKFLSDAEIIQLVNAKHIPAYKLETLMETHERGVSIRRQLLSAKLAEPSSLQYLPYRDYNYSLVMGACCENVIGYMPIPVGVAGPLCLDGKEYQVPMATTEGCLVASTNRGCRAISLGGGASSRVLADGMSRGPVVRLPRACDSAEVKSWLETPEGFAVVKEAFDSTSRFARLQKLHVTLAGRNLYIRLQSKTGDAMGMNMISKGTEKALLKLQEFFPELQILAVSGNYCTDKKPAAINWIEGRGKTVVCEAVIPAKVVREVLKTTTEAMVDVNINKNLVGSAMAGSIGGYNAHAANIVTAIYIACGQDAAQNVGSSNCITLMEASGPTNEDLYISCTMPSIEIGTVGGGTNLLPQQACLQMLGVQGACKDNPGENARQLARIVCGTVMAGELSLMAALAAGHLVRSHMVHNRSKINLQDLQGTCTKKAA
Briefly: Inhibition of HMG-CoA reductase from rat liver.

Series [6] deals with Rattus norvegicus. Briefly: Percent reduction of HMGR activity in diazasterol-treated rat at dose 20 mg/kg by intragastric administration (p<0.05). It counts as functional.
Series [7] concerns Rattus norvegicus. The series is described as follows: Percent reduction of HMGR activity in diazasterol-treated rat at dose 100 mg/kg by intragastric administration (p<0.05). Format: functional.
The test system of series [8] is Rattus norvegicus. Briefly: Percent reduction of HMGR activity in diazasterol-treated rat at dose 50 mg/kg by intragastric administration (p<0.05). Format: functional.
The test system of series [9] is Rattus norvegicus. Briefly: Percent reduction of Serum Cholesterol in Triton-treated rat at dose 50 mg/kg by intragastric administration. Format: functional.
Series [10] concerns Rattus norvegicus. The series is described as follows: Percent reduction of HMGR activity in diazasterol-treated rat at dose 10 mg/kg by intragastric administration. Format: functional.
In series [11] the test system is Rattus norvegicus. The series is described as follows: Percent reduction of Serum Cholesterol in Triton-treated rat at dose 80 mg/kg by intragastric administration. Format: functional.
Substrate in series [12]: CCCCCCCCCCCCCCCC(O)(CC(=O)O)CC(=O)O
Description: Competitive inhibition of HMG-CoA reductase

For orientation: inhibition means the percentage by which the read-out fell short of the control. A higher inhibition goes with strong suppression. In general, IC50 refers to the point on the concentration scale where inhibition reaches its midpoint. A low value points to higher potency. In general, Km refers to the substrate concentration at which the rate is half of its maximum.

For the molecule `CCCCCCCCCCCCCCCC(O)(CC(=O)OC)CC(=O)OC`, the inhibition in series [1] is 1%. The Reduction in the series on Rattus norvegicus [2] is given as 4%; in the series on Rattus norvegicus [3], 2%; with Rattus norvegicus [4] it was 4%.

For the molecule `CCCCCCCCCCCCCCCC(O)(CC(=O)O)CC(=O)O`, in series [5], the IC50 amounted to 50 µM. Further, the Reduction turned out to be 27% with Rattus norvegicus [6]; 17% in the series with Rattus norvegicus [2]; 40% with Rattus norvegicus [7]; 22% in the series on Rattus norvegicus [3]; 31% in the series with Rattus norvegicus [8]; 4% in the series with Rattus norvegicus [4]. The molecule also had an inhibition in [1] of 99%.

Molecule `CCCCCCC(O)(CC(=O)O)CC(=O)O` gave an inhibition in series [1] of 5%.

`CC1(O)CC(=O)OC(=O)C1`: the inhibition in series [1] is 0%.

`COC(=O)CC(C)(O)CC(N)=O` (stereo not given) yielded an inhibition in series [1] of 0%.

Molecule `CCCCCCCCCCC(O)(CCO)CCO` returned an inhibition in series [1] of 0%.

In turn, `CCCCCCCCCCCCCCCC1(OC(C)=O)CC(=O)OC(=O)C1` had an inhibition in series [1] of 9%.

Regarding `CCCCCCCCCCCCCCCCCCCC(O)(CC(=O)O)CC(=O)O`, in [5], the IC50 amounted to 350 µM. Also, in [1], the inhibition worked out at 86%.

Molecule `CCC(O)(CC(=O)O)CC(=O)O` had an inhibition in series [1] of 29%.

The molecule `CC(C)C(O)(CC(=O)O)CC(=O)O` showed an inhibition in series [1] of 10%.

With `CC[C@H](C)C(=O)O[C@H]1CCC=C2C=C[C@H](C)[C@H](CC[C@@H]3C[C@@H](O)CC(=O)O3)[C@H]21` [MEVASTATIN], the Reduction was determined as 17% in the series on Rattus norvegicus [9], 60% in the series on Rattus norvegicus [10] and 28% in the series on Rattus norvegicus [11].

Molecule `CCCCCCCCCCCCCCCC(O)(CC(=O)OCC)CC(=O)OCC` yielded a Reduction with Rattus norvegicus [2] of 3%.

With `CCCC(O)(CC(=O)O)CC(=O)O`, the inhibition in series [1] came to 37%.

On to `CC1(O)CC(=O)NC(=O)C1`, for which the inhibition in series [1] is 50%.

In [1], `CCOC(=O)CC(C)(O)CC(=O)OCC` came in with an inhibition of 0%.

Molecule `CCCCCCCCCCC(O)(CC(=O)OCC)CC(=O)OCC` had an inhibition in series [1] of 0%.

On to `CCCCCCCCCCCCCCCC(O)(CCO)CCO`, for which, in [1], the inhibition was found to be 0%.

The molecule `CCCCCCCCCCCCCCCC(O)(CC(=O)O)CC(=O)OCCN(C)C` (stereo not given) had an inhibition in series [1] of 0%.

On to `CC(O)(CC(=O)O)CC(=O)O`, for which the inhibition in series [1] was found to be 0%.

As to `CCCCCCCCCCCCCCC/C(=C\C(=O)O)CC(=O)O`, the inhibition in series [1] was determined as 0%.

`CCCCCCCCCCC1(O)CCOC(=O)C1` (stereo not given) returned an inhibition in series [1] of 57%.

B1: 3-hydroxy-3-methylglutaryl-coenzyme A reductase (Rattus norvegicus), P51639 (protein)
chain: MLSRLFRMHGLFVASHPWEVIVGTVTLTICMMSMNMFTGNNKICGWNYECPKFEEDVLSSDIIILTITRCIAILYIYFQFQNLRQLGSKYILGIAGLFTIFSSFVFSTVVIHFLDKELTGLNEALPFFLLLIDLSRASALAKFALSSNSQDEVRENIARGMAILGPTFTLDALVECLVIGVGTMSGVRQLEIMCCFGCMSVLANYFVFMTFFPACVSLVLELSRESREGRPIWQLSHFARVLEEEENKPNPVTQRVKMIMSLGLVLVHAHSRWIADPSPQNSTAEQSKVSLGLAEDVSKRIEPSVSLWQFYLSKMISMDIEQVITLSLALLLAVKYIFFEQAETESTLSLKNPITSPVVTPKKAQDNCCRREPLLVRRNQKLSSVEEDPGVNQDRKVEVIKPLVAEAETSGRATFVLGASAASPPLALGAQEPGIELPSEPRPNEECLQILESAEKGAKFLSDAEIIQLVNAKHIPAYKLETLMETHERGVSIRRQLLSAKLAEPSSLQYLPYRDYNYSLVMGACCENVIGYMPIPVGVAGPLCLDGKEYQVPMATTEGCLVASTNRGCRAISLGGGASSRVLADGMSRGPVVRLPRACDSAEVKSWLETPEGFAVVKEAFDSTSRFARLQKLHVTLAGRNLYIRLQSKTGDAMGMNMISKGTEKALLKLQEFFPELQILAVSGNYCTDKKPAAINWIEGRGKTVVCEAVIPAKVVREVLKTTTEAMVDVNINKNLVGSAMAGSIGGYNAHAANIVTAIYIACGQDAAQNVGSSNCITLMEASGPTNEDLYISCTMPSIEIGTVGGGTNLLPQQACLQMLGVQGACKDNPGENARQLARIVCGTVMAGELSLMAALAAGHLVRSHMVHNRSKINLQDLQGTCTKKAA
With B1, the Km in series [12] stood at 8 µM.
